Values quoted from earlier work as cited in patent publication US20090053769A1, “HETEROLOGOUS PRODUCTION OF NATURAL PRODUCTS IN BACTERIA” (University of Southern California, priority 2007, published 2009).
Positions of bridges follow the written chain, without caps; N, C: chain ends. Non-standard residues stand in square brackets, D forms with d. Residues, ends and D or L forms follow the SMILES beside them. Chains are numbered I, II in the order given. *: point of attachment. Quinoxaline2carbonyl = O=C(c1cnc2ccccc2n1)*; NMeV = CN[CH](C(=O)O)C(C)C; NMeC = CN[CH](CS)C(=O)O

Settings: general statement on antibacterial, anticancer and antiviral activities, reference 24

In the case of `CS[C@H]1SC[C@H]2C(=O)N(C)[C@@H](C(C)C)C(=O)OC[C@@H](NC(=O)c3cnc4ccccc4n3)C(=O)N[C@@H](C)C(=O)N(C)[C@@H]1C(=O)N(C)[C@@H](C(C)C)C(=O)OC[C@@H](NC(=O)c1cnc3ccccc3n1)C(=O)N[C@@H](C)C(=O)N2C` [compound 1, echinomycin], the potency is given as “nanomolar potency”.

In the case of `CC1NC(=O)C(NC(=O)c2cnc3ccccc3n2)COC(=O)C(C(C)C)N(C)C(=O)C2CSSCC(C(=O)N(C)C(C(C)C)C(=O)OCC(NC(=O)c3cnc4ccccc4n3)C(=O)NC(C)C(=O)N2C)N(C)C1=O` (centres unmarked) [compound 2, triostin A] (I: Quinoxaline2carbonyl-SA[NMeC][NMeV] / II: Quinoxaline2carbonyl-SA[NMeC][NMeV]; ester I:1-II:C, I:C-II:1; disulfide I:3-II:3; configuration not given here), the potency is listed as “nanomolar potency”.
